Experimental data from patent US5597829A, “Lactone stable formulation of camptothecin and methods for uses thereof” (priority 1994, dated 1997).
Entries after “also recorded” stand apart in the source; their conditions may differ. Where two headings read alike, the source gives them in different places.

Columns and labels:
LD1210 leukemia = conditions: 10-100 mg/kg intraperitoneally; cited from earlier work
[1] = similar solutions; cited from earlier work
[2] = Phase I pharmacokinetics: conversion of CPT-11 into HECPT; format: in vivo, human; conditions: per/mg basis, from mean peak plasma concentrations
[3] = cited from earlier work
[4] = test system: xenografts of human tumors; conditions: nude mice; cited from earlier work
[5] = mice; cited from earlier work
[6] = cited from earlier work; remark: listed apart in the source
[7] = cited from earlier work; remark: listed apart in the source
[8] = cited from earlier work; remark: listed apart in the source
[9] = test system: topoisomerase I in P388 cells; conditions: cited from earlier work
MOLT3 cells = conditions: cited from earlier work
P388 tumor = conditions: intermittent bolus (days 1, 5, and 9), i.p.; cited from earlier work
[10] = Masuda et al, refractory or relapsed small cell lung cancer, 100 mg/m^2 weekly
[11] = Negoro et al, small cell lung cancer, 100 mg/m^2 weekly, 41 pts
[12] = Shimada et al, colon cancer, 100 mg/m^2 /week or 150 mg/m^2 /Q 2 wks
[13] = Takeuchi et al, cervical cancer, 69 pts

## CCc1c2c(nc3ccccc13)-c1cc3c(c(=O)n1C2)COC(=O)[C@]3(O)CC [ECPT, 7-ethyl camptothecin]
LD1210 leukemia
  T/C (treated/control) ratios: inferior to that of CPT-11 administration under the same conditions

## COc1cc([C@@H]2c3cc4c(cc3[C@@H](O[C@@H]3O[C@@H]5CO[C@@H](C)O[C@H]5[C@H](O)[C@H]3O)[C@H]3COC(=O)[C@H]23)OCO4)cc(OC)c1O [etoposide]
[1]
  bioavailability following oral administration relative to intravenous: substantially equivalent

## CCc1c2c(nc3ccc(OC(=O)N4CCC(N5CCCCC5)CC4)cc13)-c1cc3c(c(=O)n1C2)COC(=O)[C@]3(O)CC [CPT-11, 7-Ethyl-10-[4-(1-piperidino)-1-piperidino]Carbonyloxy-Camptothecin]
[2]
  administered CPT-11 converted into HECPT: 1.5% to 9
[3]; Clavel et al, 90 min QDx3 Q21 days, 115 mg/m^2 /d (33-115), 37 pts
  Toxicity (* dose limiting): Neutropenia*; also recorded: diarrhea; also recorded: nausea; also recorded: vomiting; also recorded: alopecia
[3]; Clavel et al, Breast, 37 pts
  partial responses (PR): 1 PR
[3]; Clavel et al, Mesothelioma, 37 pts
  partial responses (PR): 1 PR
[3]; Culine et al, 90 min Q21 days, 150 mg/m^2 /wk (50-150), 59 pts
  Toxicity (* dose limiting): Neutropenia*; also recorded: diarrhea*; also recorded: vomiting; also recorded: alopecia; also recorded: fatigue; also recorded: stomatitis
[3]; Culine et al, cervix, 59 pts
  partial responses (PR): 1 PR
[3]; Culine et al, esophagus, 59 pts
  partial responses (PR): 1 PR
[3]; Culine et al, ovarian, 59 pts
  partial responses (PR): 1 PR
[3]; Culine et al, renal, 59 pts
  partial responses (PR): 1 PR
[3]; Negoro et al, 30 min infusion weekly, 100 mg/m^2 (50-150), 17 pts
  Toxicity (* dose limiting): Neutropenia* and Diarrhea* and N/V and alopecia and liver
[3]; Negoro et al, NS CLC, 17 pts
  partial responses (PR): 2 PRs
[3]; Ohe et al, 36 pts
  responses by tumor type: None
[3]; Ohe et al, 120 hr CI Q3 wks, 40 mg/m^2 /d (5-40), 36 pts
  Toxicity (* dose limiting): Diarrhea*; also recorded: nausea; also recorded: vomiting; also recorded: thrombocytopenia; also recorded: anemia; also recorded: liver
[3]; Phase I and Phase II trials
  major reported, dose-limiting toxicities: Neutropenia and diarrhea
[3]; Rothenberg et al, Colon Ca, 32 pts
  partial responses (PR): 2 PRs
[3]; Rothenberg et al, QWx4 Q42 days, 180 mg/m^2 /wk (50-180), 32 pts
  Toxicity (* dose limiting): Diarrhea*; also recorded: Neutropenia; also recorded: nausea; also recorded: vomiting; also recorded: alopecia
[3]; Rowinsky et al, 90 min infusion Q21 day, 240 mg/m^2 (100-345), 32 pts
  Toxicity (* dose limiting): Neutropenia* and vomiting and diarrhea and abd. and flushing
[3]; Rowinsky et al, Cervix Ca, 32 pts
  partial responses (PR): 1 PR
[3]; Rowinsky et al, Colon Cancer, 32 pts
  partial responses (PR): 1 PR
[4]
  dependence of tumor sensitivity on ability to produce HECPT: independent of their ability to produce HECPT
[5]
  plasma concentration of HECPT after CPT-11 compared to after HECPT: maintained longer after CPT-11 administration than after treatment with HECPT
[6]; Fukuoka et al, untreated non small cell lung cancer, 100 mg/m^2
  partial responses: 23/72
[6]; [10]
  Response Rate: 47%
  partial responses: 7/15
[6]; [11]
  Response Rate: 33.3%
  complete responses: 2 CRs
  partial responses: 7 PRs
[6]; Negoro et al, small cell lung cancer
  N/V: 61.5%
[6]; Ohno et al, 62 pts
  Gastrointestinal toxicity: 76%
  Reported Toxicities: Thrombocytopenia
[6]; Ohno et al, leukemia/lymphoma, 20 mg/m^2 bid x7
  Response Rate: 25 % RR
[6]; Ohno et al, leukemia/lymphoma, 40 mg/m^2 Q0x5
  partial response rate: 34 % PR
[6]; Ohno et al, leukemia/lymphoma, 200 mg Q3
  Response: No resp.
[6]; Shimada et al, 17 pts
  N/V: 35%
[6]; [12]
  Response Rate: 46%
  partial responses: 6/17
[6]; [13]
  Response Rate (RR): 23.6%
  complete responses: SCR
  partial responses: 8 PR
[6]; Takeuchi et al, cervical cancer
  N/V: 51%
[6]; in vivo
  Alopecia: 38.1%
  Diarrhea: 39.1%
  alopecia: 40.0%
  pneumonitis: 12.5
[7]; 5-day continuous intravenous infusion
  conversion of CPT-11 to HECPT: saturable process
[8]; single dose I.V., 50 mg/m^2
  Fractional amount of lactone species, CpMax based: 0.51
[8]; single dose I.V., 80 mg/m^2
  Fractional amount of lactone species, CpMax based: 0.44
[8]; single dose I.V., 100 mg/m^2
  Fractional amount of lactone species, CpMax based: 0.53
[8]; single dose I.V., 125 mg/m^2
  Fractional amount of lactone species, CpMax based: 0.55
[8]; single dose I.V., 150 mg/m^2
  Fractional amount of lactone species, CpMax based: 0.42
[8]; single dose I.V., 180 mg/m^2
  Fractional amount of lactone species, CpMax based: 0.42
[8]; single dose I.V.
  overall fractional concentration of the lactone species over dose range: fairly constant

## CCc1c2c(nc3ccc(O)cc13)-c1cc3c(c(=O)n1C2)COC(=O)[C@]3(O)CC [HECPT, 10-hydroxy 7-ethyl camptothecin]
LD1210 leukemia
  T/C (treated/control) ratios: inferior to that of CPT-11 administration under the same conditions
[9]
  greater inhibitory activity than CPT-11 against topoisomerase I: 3600 fold
MOLT3 cells
  more potent than CPT-11 in generating single-strand DNA breaks: approximately 1000 fold
P388 tumor
  anti-tumor activity compared to CPT-11: little anti-tumor activity compared to CPT-11
[7]; human subjects
  correlation of HECPT pharmacokinetics with dose or of CPT-11 pharmacokinetics with toxicity: lack of correlation
[8]; in vivo, iv
  overall fractional concentration of the lactone species over dose range: fairly constant
